Data: paper PMC5023172, “Preclinical Activity of ARQ 087, a Novel Inhibitor Targeting FGFR Dysregulation” (PLoS ONE, 2016)

Test system: Ba/F3-INSR xenograft
Assay: Xenograft tumor growth inhibition
Assay type: in vivo, mice
Text: Six week old female NCr nu/nu mice (for SNU-16) or CB-17 SCID female mice (for NCI-H716 and BaF3 models) were purchased from Taconic Farms (Germantown, NY) and allowed to acclimate for greater than 2 weeks. Mice were housed in sterile micro isolator cages with 5 mice per cage and were received food and water ad libitum. Tumor cells were suspended in 50% Matrigel (lot# A9618-BD, Bioscience) and sterile Hanks Balanced Salt Solution (HBSS) for the NCI-H716 model or in HBSS alone for SNU-16. Each mouse was implanted subcutaneously with 5x10^6 cells (SNU-16) or 8x10^6 cells (NCI-H716) or 2x10^6 cells (BaF3) to the upper right flank area. Tumor measurements and body weights were collected two to three times per week with electronic calipers and balance. Tumor weight (mg) was calculated from the equation: length x (width)^2/2. This formula was used to calculate tumor volume assuming unit density 1 mg = 1 mm^3. Treatment was initiated when tumor burden was between 100–200 mgs. Percent inhibition or tumor growth inhibition (TGI) was calculated using the following formula: 100-[mean tumor value of treated / mean tumor value of control] x 100.
Plasma and tumor samples were collected 4 hours post single dose. […] Dosing volume for all groups was 10 mL/kg or 0.1 mL/10 g body weight.

CC[C@]1(O)C[C@@H]2CN(CCc3c([nH]c4ccccc34)[C@@](C(=O)OC)(c3cc4c(cc3OC)N(C)[C@H]3[C@@](O)(C(=O)OC)[C@H](OC(C)=O)[C@]5(CC)C=CCN6CC[C@]43[C@@H]65)C2)C1 [Vinblastine]
T/C (10 mg/kg IV Q5Dx2, Day 10): 100.48 | Tumor Weights (mg), MEAN (10 mg/kg IV Q5Dx2, Day 10): 230.70 mg | T/C (10 mg/kg IV Q5Dx2, Day 13): 42.10 | Tumor Weights (mg), MEAN (10 mg/kg IV Q5Dx2, Day 13): 256.70 mg | T/C (10 mg/kg IV Q5Dx2, Day 15): 37.24 | Tumor Weights (mg), MEAN (10 mg/kg IV Q5Dx2, Day 15): 325.90 mg | T/C (10 mg/kg IV Q5Dx2, Day 17): 11.60 | Tumor Weights (mg), MEAN (10 mg/kg IV Q5Dx2, Day 17): 196.60 mg | T/C (10 mg/kg IV Q5Dx2, Day 20): 2.84 | Tumor Weights (mg), MEAN (10 mg/kg IV Q5Dx2, Day 20): 69.22 mg
